# Peptide text beside a SMILES is read from it. * marks the point of attachment. Cbz = O=C(OCc1ccccc1)*; CH2F = FC*
# Legend:
# Type in all cases: cell-based, human
# keratinocytes [1] = assay: Pemphigus sera-induced cell detachment (acantholysis) of keratinocytes; details: pretreatment with Z-IETD-FMK 100 μM for 30 min or NOK2 15 μg/ml, then 72 hrs sera; FIG. 12B
# keratinocytes [2] = assay: Pemphigus sera-induced Dsg3 cleavage and caspase-8 activation in confluent keratinocytes, Western blotting; details: pretreatment with Z-IETD-FMK 100 μM for 30 min or NOK2 15 μg/ml, then 72 hrs sera; FIG. 12A
# Experimental: To investigate whether the extrinsic apoptotic pathway is responsible for dsg cleavage, we pretreated confluent keratinocytes with caspase-8 inhibitor Z-IETD-FMK (100 μM for 30 min) or with anti-FasL (NOK2, 15 μg/ml)Ab. Then cells were incubated for 72 hrs with healthy or untreated pemphigus sera. Protein extracts from the culture were analyzed by Western blotting using anti-Dsg3 antibodies and anti-caspase-8 Ab. Vinculin was used as internal control. (FIG. 12A).
# keratinocytes [3] = assay: Pemphigus sera-induced keratinocyte apoptosis, TUNEL staining; details: sera pretreated with anti-FasL neutralizing antibody (2.5 mg per ml for 30 min) or Z-IETD-FMK (100 μM for 30 min); FIG. 6
# Experimental: As apoptotic keratinocytes are abundantly expressed in pemphigus, we wanted to explore whether pemphigus sera are capable of inducing apoptosis in normal human keratinocytes. To this purpose, keratinocytes were plated in chamber slides and cultured in serum-free medium (KGM) up to preconfluence. Cells were then cultured in keratinocyte basal medium and treated for 48 h with the addition of 25% serum from either untreated patients or patients treated with systemic corticosteroids. Sera from healthy subjects were used as controls. Apoptosis was evaluated by TUNEL staining in situ. Approximately 100 cells were evaluated, in randomly selected fields, and the percentage of TUNEL-positive cells was counted.
# FasL is one of the major triggers of the caspase-8 activated extrinsic apoptotic pathway. Therefore, we wanted to evaluate whether this pathway plays a role in pemphigus apoptosis. To this purpose, patient sera were pretreated with anti-FasL neutralizing antibody or caspase-8 inhibitor, and added to keratinocyte cultures. Keratinocytes were cultured in KGM and treated with pemphigus sera or with sera from untreated patients. Sera were pretreated with anti-FasL neutralizing antibody (2.5 mg per ml for 30 min) or caspase-8 inhibitor Z-IETD-FMK (100 μM for 30 min). Apoptosis was evaluated by TUNEL staining.
compound,measurement,setting,value
CC[C@H](C)[C@H](NC(=O)OCc1ccccc1)C(=O)N[C@@H](CCC(=O)OC)C(=O)N[C@H](C(=O)N[C@@H](CC(=O)OC)C(=O)CF)[C@@H](C)O [Z-IETD-FMK] (Cbz-IE(OMe)TD(OMe)-CH2F),cell detachment (i.e. acantholysis) induced by untreated pemphigus sera,keratinocytes [1],prevented
same,caspase-8 activation induced by untreated pemphigus sera,keratinocytes [2],prevents
same,dsg cleavage (Dsg3) induced by untreated pemphigus sera,keratinocytes [2],prevents
same,pemphigus sera-induced keratinocyte apoptosis (TUNEL staining),keratinocytes [3],partially prevented

# From patent publication US9255150B2, “Remedies for pemphigus containing anti-Fas ligand antibodies” (PINCELL SRL, priority 2008, dated 2016)
